Assays:
Type in all cases: in vivo, rat
[1] = system: CRHR1, CRHR2, CRH and GR mRNA in hippocampus; test: qRT-PCR of mRNA levels in hippocampus; settings: day 60
Method: Endometriosis vesicles and normal uterine tissue from endometriosis or sham rats, were lysed in an RLT buffer (QIAGEN, Germantown, Md.) using the BULLET BLENDER Tissue Homogenizer (NEXT ADVANCE, Averill Park, N.Y.). The total RNA from the lysates were extracted according to RNEASY Mini Kit manufacturer's protocol (QIAGEN, Germantown, Md.). RNA concentration and purity were measured on a NanoDrop™ 2000 UV spectrophotometer (Thermo Scientific™, Wilmington, USA). Concentration and quality of RNA samples were acquired based on the ratio of absorbance at 260/280 nm in the spectrophotometer. To carry out the synthesis of cDNA from RNA samples a total reaction volume of 20 μl including 0.1 μg of total RNA concentration and synthesis reagents was used. A iScript™ cDNA Synthesis Kit was used according to manufacturer's protocol (BIO-RAD, Hercules, Calif.). Reactions were carried out in T-100™ thermal cycler (BIO-RAD, Hercules, Calif.). RT-PCR running method was as follows: 25° C. for 5 min, 42° C. for 30 min, 85° C. for 5 min. Samples were stored at −80° C. for later experimentation or qRT-PCR.
Real time quantitative PCR (qPCR) was used to evaluate changes in mRNA expression. For this, 25 μl of a total volume of reaction assay was used with 1:10 dilution of cDNA with iQ™ SYBR Green Supermix (BIO-RAD Hercules, Calif.) in a 96 well plate according to the manufacturer protocol and amplified in a Quant Studio™ 12 K Flex Real time PCR System (Applied Biosystems™, Carlsbad, Calif.). Commercial primers for CRH, UCN1 CRHR1, CRHR2 and glucocorticoid receptor (GR) were purchased from QIAGEN (Germantown, Md.). Real time PCR cycles protocol was as follows: 95° C. for 10 min. for enzyme activation followed by 40 cycles of denaturing at 95° C. for 15 sec. and annealing at 60° C. for 1 min. All changes in gene expression were normalized against GAPDH of each sample. CT values and changes per gene expression level were automatically analyzed by the Quantstudio™ 12 K Flex Software (Applied Biosystems™, Carlsbad, Calif.). All samples were run in duplicate. For comparison purposes, mRNA from sham rats were always run within the same plate as experimental samples from vehicle treated and antalarmin treated groups.
Endometriosis and antalarmin have long-lasting effects in the brain. Previous work reported a decrease in CRH within hippocampus of animals with endometriosis compared to sham rats that were subject to stress. Given that antalarmin readily crosses the blood brain barrier, the effects of treatment in the hippocampus was quantified. […] It appears that the increase in CRH1 was balanced out by an equally similar increase in CRH2. This was not observed in the vehicle treated groups (FIGS. 10A and 10B). mRNA was collected and quantified as described in Example 1. […]

anxiety behaviors = test: Anxiety behaviors: open field and elevated zero maze; settings: day 60; compared to sham group
Method: One day before behavioral assessment and sacrifice a subset of rats (6 vehicle and 6 antalarmin) were subjected to an acute episode of swim stress of 10 min and compared to no stress controls to assess how rats respond to acute activation of the HPA axis. For this, animals were placed in a Plexiglas tank for 10 min in water at 25° C. Rats were towel dried and kept in warm cage after swim until fur dried. The next day, two behavioral tasks were used to assess anxiety behaviors. The open field test is used to quantify exploratory and locomotor activity of a rodent in an open arena. The apparatus used was a square wood arena (91×91×38 cm) with overhead light illumination and video monitoring to record animal activity using Any-Maze software (Stoelting, Wood Dale, Ill.). The following behaviors were quantified during 20 minutes: 1) total distance moved, 2) time spent moving, 3) time spent in the center of the arena, 4) time spent near the walls of the arena (defined by the 15 cm of floor arena closest to the walls) and 5) total fecal pellets. The more time the animal spends in the center of the arena compared to the space adjacent to the wall is considered as having less anxiety. At the end of the testing period, animals were returned to the home cage and after a 5-min break were tested in the elevated zero-maze.
The elevated zero-maze is very similar to the more traditional elevated plus maze test, with the advantage of not having a neutral (undefined) zone in the middle. The apparatus consisted of a circle with an arm width of 10 cm and elevated 40 cm from floor. […] Rats were allowed to run the maze for 5 consecutive minutes and recorded using the Any-Maze software (Stoelting, Wood Dale, Ill.). The following parameters were analyzed by the Any-Maze program: 1) total distance travelled in the maze, 2) time spent in the open/closed arms and 2) number of entries made by the rodent onto the open/closed arms. When 60% of the animal body entered the arm, the program counted is as an entry. In addition, total fecal pellets in the maze were quantified. […]

[2] = Body weight monitoring of rats with endometriosis; settings: vs vehicle
From the text: Female Sprague Dawley rats of 60 days old were used in the experiments (weighing between 190-220 grams). Rats were purchased from Ponce Research Institute Animal Facilities and littermates were never assigned to the same experimental group. Rats were housed two per cage and kept in a 12-hour light/dark cycle with food and water ad libitum. All experimental procedures were approved by the Ponce Health Sciences University (protocol #202) and the University of Texas at Rio Grande Valley (protocol #2016-004) Institutional Animal Care and Use Committees and adhere to the NIH Guide for the Care and Use of Laboratory Animals. Rats were weighed twice per week to monitor their adequate development and once a day during the drug administration period; also, estrous cycles were monitored before and after treatment to assess possible effects of the drug on reproductive cyclicity.
Inconsistencies in the effect of antalarmin on […] rodent body weight can happen. The Group 2 rat weight changes were monitored during the drug administration period and every week afterwards during the development of endometriosis.

stress reactivity = test: Swim stress challenge; settings: day 59; vs vehicle control group
[3] = normalized to sham, large variability

With `CCCCN(CC)c1nc(C)nc2c1c(C)c(C)n2-c1c(C)cc(C)cc1C` [antalarmin] the “hippocampal CRH mRNA” value ([1]; compared to sham) was “increase in hippocampal CRH mRNA of similar magnitude”, the “hippocampal GR mRNA” value ([1]; compared to sham) was “fourfold increase” and the “hippocampal CRHR1 mRNA increase” value [1, 3] was 15 fold. The “hippocampal CRHR2 mRNA increase” value [1, 3] was 15 fold, the “open field: total distance traveled” value (anxiety behaviors) was “significantly lower” and the “zero maze: locomotor activity” value (anxiety behaviors) was “higher locomotor activity”. For the same compound, the “zero maze: time in the open arms” value (anxiety behaviors) was “strong trend for both groups of rats with endometriosis to spend less time in the open arms”, the “weight gain in subsequent weeks” value ([2]; by week 7 and 8 after endometriosis induction) was “significantly lower weight gain” and the “body weight during and just after drug administration” value ([2]; day 7 and 2 days after treatment stopped) was “weighed significantly less”. The “swim stress behavioral parameters (immobility, swimming, struggling, diving)” value (stress reactivity) was “not different from the control group”.

Reference: patent US10729693B2, “Compositions and methods for the treatment of endometriosis” (PONCE MEDICAL SCHOOL FOUNDATION, INC., priority 2018, dated 2020)
